The assay addresses hCB2 (Homo sapiens, UniProt P34972). Description: cAMP determination in functional hCB2-CHO stable cells (HTRF). It counts as cell-based. Here is the method: In-Vitro Assay Method for Determination of cAMP in Functional hCB2—CHO Stable Cells:
Recombinant CHO-hCB2 cells (procured from Perkin Elmer Inc. USA) were propagated and maintained in Ham's F-12 complete medium containing 10% heat inactivated FBS (Sigma.UK) and 1× penstrep. For assay, 0.1×10^6 to 1.0×10^6 CHO-hCB2 cells were seeded in T-25 flask and grown to mid-log phase in culture media without antibiotics for 2-3 days. […] The test is performed in 96^1/2 area black well plates. For agonist testing, 20 μl cells/well were mixed with 20 μl of sample and 10 μl of forskolin (with final concentration of 10 μM) and incubated for 20 to 40 min at room temperature in incubator. The plate was then processed for the cAMP determination using cAMP Femto-2 HTRF kit (Cisbio, Germany) as per the manual.
The concentration of compound required to stimulate a half-maximal response (EC50) was determined using the GraphPad Prism software (version 5).
A general note: In TR-FRET formats the signal depends on donor and acceptor labels being close together.

Setting [1] is: CHO-hCB2 cells, cAMP, forskolin 10 μM, agonist testing, read-out: EC50 Range.

Where two headings read alike, the source gives them in different places.

The EC50 is the concentration giving half of the maximal effect.

hCB2, sequence (P34972 whole entry): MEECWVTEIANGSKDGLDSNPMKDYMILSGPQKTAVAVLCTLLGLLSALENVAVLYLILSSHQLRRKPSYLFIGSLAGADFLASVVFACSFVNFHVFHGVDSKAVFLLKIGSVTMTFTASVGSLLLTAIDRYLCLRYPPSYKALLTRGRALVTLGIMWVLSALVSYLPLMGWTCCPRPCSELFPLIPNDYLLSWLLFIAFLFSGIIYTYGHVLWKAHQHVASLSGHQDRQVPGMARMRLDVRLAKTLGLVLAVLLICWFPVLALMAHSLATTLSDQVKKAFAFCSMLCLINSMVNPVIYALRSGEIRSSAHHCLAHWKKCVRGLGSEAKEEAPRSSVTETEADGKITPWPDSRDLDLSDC

As to `O=C(c1cnc(Nc2cccc(C(F)(F)F)c2)c2cccc(C3CC3)c12)N1CCOCC1` [Example-118, (5-Cyclopropyl-1-((3-(trifluoromethyl)phenyl)amino)isoquinolin-4-yl)(morpholino)methanone], the EC50 was < 0.01 µM.
`O=C(c1cnc(Nc2cccc(C(F)(F)F)c2F)c2cccc(C3CC3)c12)N1CCOCC1` [Example-119, (5-Cyclopropyl-1-((2-fluoro-3-(trifluoromethyl)phenyl)amino)isoquinolin-4-yl)(morpholino)methanone]: under setting [1], the EC50 was < 0.01 µM.
On the same count and under the same terms, the same measure for `CCc1cccc2c(Nc3cccc(F)c3F)ncc(C(=O)N3CCCCC3)c12` [Example-124, (1-((2,3-Difluorophenyl)amino)-5-ethylisoquinolin-4-yl)(piperidin-1-yl)methanone]: < 0.01 µM.
As to `CCc1cccc2c(Nc3cccc(Cl)c3F)ncc(C(=O)N3CCCCC3)c12` [Example-128, (1-((3-Chloro-2-fluorophenyl)amino)-5-ethylisoquinolin-4-yl)(piperidin-1-yl)methanone], the EC50 was < 0.01 µM.
Take `CCc1cccc2c(Nc3cccc(C(F)(F)F)c3F)ncc(C(=O)N3CCCCC3)c12` [Example-129, (5-Ethyl-1-((2-Fluoro-3-(trifluoromethyl)phenyl)amino)isoquinolin-4-yl)(piperidin-1-yl)methanone]: the EC50 under setting [1] is < 0.01 µM.
On the same count and under the same terms, for `CCc1cccc2c(Nc3cccc(Cl)c3C)ncc(C(=O)N3CCCCC3)c12` [Example-131, (1-((3-Chloro-2-methylphenyl)amino)-5-ethylisoquinolin-4-yl)(piperidin-1-yl)methanone] the value was < 0.01 µM.
Still for that read-out and setting: the same measure for `Cc1cccc(Nc2ccc(C(=O)N3CCOCC3)c3c(C)cccc23)c1` [Example-150, (8-Methyl-4-(m-tolylamino)naphthalen-1-yl)(morpholino)methanone]: < 0.01 µM.
Regarding `Cc1ccc(Nc2ccc(C(=O)N3CCOCC3)c3c(C)cccc23)cc1F` [Example-152, (4-((3-Fluoro-4-methylphenyl)amino)-8-methylnaphthalen-1-yl)(morpholino)methanone], the EC50 is < 0.01 µM.
In the case of `COc1cccc(Nc2ccc(C(=O)N3CCCCC3)c3c(C)cccc23)c1` [Example-161, (4-((3-Methoxyphenyl)amino)-8-methylnaphthalen-1-yl)(piperidin-1-yl)methanone], the concentration giving a half-maximal response (EC50) under setting [1] was < 0.01 µM.
On the same count and under the same terms, the same measure for `Cc1cccc2c(Nc3cccc(F)c3F)ccc(C(=O)N3CC4CC4C3)c12` (stereo not drawn) [Example-166, 3-Azabicyclo[3.1.0]hexan-3-yl(4-((2,3-difluorophenyl)amino)-8-methylnaphthalen-1-yl)methanone]: < 0.01 µM.
Take `Cc1c(F)cccc1Nc1ccc(C(=O)N2CC3CC3C2)c2c(C)cccc12` (stereo not drawn) [Example-170, 3-Azabicyclo[3.1.0]hexan-3-yl(4-((3-fluoro-2-methylphenyl)amino)-8-methylnaphthalen-1-yl)methanone]: the EC50 under setting [1] is < 0.01 µM.
Take `Cc1cccc2c(Nc3cccc(F)c3F)ccc(C(=O)N3CC4CC(C3)O4)c12` [Example-172, 6-Oxa-3-azabicyclo[3.1.1]heptan-3-yl(4-((2,3-difluorophenyl)amino)-8-methylnaphthalen-1-yl)methanone]: the EC50 was < 0.01 µM.
The same measure, in the same setting: for `O=C(NCC1CCOCC1)c1ccc(Nc2cccc(Cl)c2)c2ccccc12` [Example-180, 4-((3-Chlorophenyl)amino)-N-((tetrahydro-2H-pyran-4-yl)methyl)-1-naphthamide] the value was 0.01 to 1 µM.
With `O=C(c1ccc(Nc2cc(F)cc(F)c2)c2ccccc12)N1CCOCC1` [Example-187, (4-((3,5-Difluorophenyl)amino)naphthalen-1-yl)(morpholino)methanone], under setting [1], the EC50 was in the range of 0.01 to 1 µM.
On the same count and under the same terms, the same measure for `CC1COCC(C)N1C(=O)c1ccc(Nc2cc(F)cc(F)c2)c2ccccc12` (stereo not drawn) [Example-190, (4-((3,5-Difluorophenyl)amino)naphthalen-1-yl)(3,5-dimethylmorpholino)methanone]: 0.01 to 1 µM.
`O=C(c1ccc(Nc2ccc(Cl)cc2Cl)c2ccccc12)N1CCOCC1` [Example-197, (4-((2,4-Dichlorophenyl)amino)naphthalen-1-yl)(morpholino)methanone]: the EC50 was 0.01 to 1 µM.
On the same count and under the same terms, for `O=C(c1ccc(Nc2cccc(C(F)(F)F)c2)c2ccccc12)N1CCOCC1` [Example-201, Morpholino(4-((3-(trifluoromethyl)phenyl)amino)naphthalen-1-yl)methanone] the value was < 0.01 µM.
For the compound `CN(C)C(=O)c1ccc(Nc2cccc(F)c2C(F)(F)F)c2cccc(Cl)c12` [Example-469, 8-Chloro-4-((3-fluoro-2-(trifluoromethyl)phenyl)amino)-N,N-dimethyl-1-naphthamide], the 50% effective concentration (EC50) under setting [1] fell in the range of 0.01 to 1 µM.
Still for that read-out and setting: the same measure for `CCN(CC)C(=O)c1cnc(Nc2cccc(C(=O)OC)c2C)c2cccc(Cl)c12` [compound 249, Methyl 2-methyl-3-((5-chloro-4-(diethylcarbamoyl)isoquinolin-1-yl)amino)benzoate]: < 0.01 µM.
In the case of `CCN(CC)C(=O)c1cnc(Nc2cccc(C(F)(F)F)c2F)c2cccc(C)c12` [compound 277, N,N-Diethyl-1-((2-fluoro-3-(trifluoromethyl)phenyl)amino)-5-methyl isoquinolin-4-carboxamide], the EC50 is < 0.01 µM.
With `CCN(CC)C(=O)c1cnc(Nc2cccc(C(F)(F)F)c2C)c2cccc(C)c12` [compound 279, N,N-Diethyl-5-methyl-1-((2-methyl-3-(trifluoromethyl)phenyl)amino) isoquinolin-4-carboxamide], the EC50 is < 0.01 µM.
Still for that read-out and setting: for `CCN(CC)C(=O)c1cnc(Nc2cccc(Cl)c2F)c2cccc(C)c12` [compound 282, 1-((3-Chloro-2-fluorophenyl)amino)-N,N-diethyl-5-methyl isoquinolin-4-carboxamide] the value was 0.01 to 1 µM.
Regarding `CCN(C)C(=O)c1cnc(Nc2cccc(C(F)(F)F)c2F)c2cccc(C)c12` [compound 292, N-Ethyl-1-((2-fluoro-3-(trifluoromethyl)phenyl)amino)-N,5-dimethyl isoquinolin-4-carboxamide], the EC50 under setting [1] was < 0.01 µM.
The same measure, in the same setting: for `CN(C)C(=O)c1cnc(Nc2cccc(C(F)(F)F)c2Cl)c2cccc(Cl)c12` [compound 317, 5-Chloro-1-((2-chloro-3-(trifluoromethyl)phenyl)amino)-N,N-di methylisoquinolin-4-carboxamide] the value was < 0.01 µM.
As to `CCN(CC)C(=O)c1cnc(Nc2cccc(Cl)c2C)c2cccc(Cl)c12` [compound 322, 5-Chloro-1-((3-chloro-2-methylphenyl)amino)-N,N-diethyl isoquinolin-4-carboxamide], the EC50 was < 0.01 µM.
For `CCN(CC)C(=O)c1cnc(Nc2cccc(C(F)(F)F)c2C)c2cccc(Cl)c12` [compound 325, 5-Chloro-N-N-diethyl-1-((2-methyl-3-(trifluoromethyl)phenyl)amino) isoquinolin-4-carboxamide], the EC50 was < 0.01 µM.
As for `CCN(CC)C(=O)c1cnc(Nc2cccc(C(F)(F)F)c2F)c2cccc(Cl)c12` [compound 328, 5-Chloro-N,N-diethyl-1-((2-fluoro-3-(trifluoromethyl)phenyl)amino) isoquinolin-4-carboxamide], the concentration giving a half-maximal response (EC50) under setting [1] is < 0.01 µM.
Consider `Cc1c(Nc2ncc(C(=O)N(C)C)c3c(Cl)cccc23)cccc1C(F)(F)F` [compound 329, 5-Chloro-N,N-dimethyl-1-((2-methyl-3-(trifluoromethyl)phenyl)amino)isoquinolin-4-carboxamide], for which the EC50 is < 0.01 µM.
For `CN(C)C(=O)c1cnc(Nc2cccc(C(F)(F)F)c2F)c2cccc(Cl)c12` [compound 330, 5-Chloro-1-((2-fluoro-3-(trifluoromethyl)phenyl)amino)-N,N-dimethylisoquinolin-4-carboxamide], under setting [1], the EC50 was < 0.01 µM.
Turning to `CCN(C)C(=O)c1cnc(Nc2cccc(C(F)(F)F)c2C)c2cccc(Cl)c12` [compound 331, 5-Chloro-N-ethyl-N-methyl-1-((2-methyl-3-(trifluoromethyl)phenyl)amino)isoquinolin-4-carboxamide], the EC50 was < 0.01 µM.
Still for that read-out and setting: for `Cc1c(Cl)cccc1Nc1ncc(C(=O)N(C)C)c2c(Cl)cccc12` [compound 332, 5-Chloro-1-((3-chloro-2-methylphenyl)amino)-N,N-dimethyl isoquinolin-4-carboxamide] the value was < 0.01 µM.
Consider `CN(C)C(=O)c1cnc(Nc2cccc(F)c2C(F)(F)F)c2cccc(Cl)c12` [compound 333, 5-Chloro-1-((3-fluoro-2-(trifluoromethyl)phenyl)amino)-N,N-di methylisoquinolin-4-carboxamide], for which the EC50 under setting [1] is < 0.01 µM.
Still for that read-out and setting: the same measure for `CCN(C)C(=O)c1cnc(Nc2cccc(C(F)(F)F)c2F)c2cccc(Cl)c12` [compound 334, 5-Chloro-N-ethyl-1-((2-fluoro-3-(trifluoromethyl)phenyl)amino)-N-methylisoquinolin-4-carboxamide]: < 0.01 µM; for `CCN(C)C(=O)c1cnc(Nc2cccc(F)c2C(F)(F)F)c2cccc(Cl)c12` [compound 335, 5-Chloro-N-ethyl-1-((3-fluoro-2-(trifluoromethyl)phenyl)amino)-N-methylisoquinolin-4-carboxamide]: < 0.01 µM; for `CCN(C)C(=O)c1cnc(Nc2cccc(F)c2Cl)c2cccc(Cl)c12` [compound 336, 5-Chloro-1-((2-chloro-3-fluorophenyl)amino)-N-ethyl-N-methyl isoquinolin-4-carboxamide]: < 0.01 µM.
Still for that read-out and setting: the same measure for `CCN(C)C(=O)c1cnc(Nc2c(F)ccc(F)c2F)c2cccc(Cl)c12` [compound 355, 5-Chloro-N-ethyl-N-methyl-1-((2,3,6-trifluorophenyl)amino) isoquinolin-4-carboxamide]: 0.01 to 1 µM.

The record behind these values is patent publication US9006442B2, “Cannabinoid receptor modulators” (Lupin Limited, priority 2011, dated 2015).
